Consider two compounds from article PMC4721923 (PLoS ONE, 2015).

Read-outs that look alike come from different tables or passages of the source. A value given as a limit tells only on which side of the number the result lay.

In one data set the target is T1, OCT1 (Homo sapiens, UniProt O15245).
T1 construct: containing the full length SLC22A1 cDNA (NM_003057) encoding the human OCT1 protein; expressed in transfected cells
T1 sequence (O15245 1-554): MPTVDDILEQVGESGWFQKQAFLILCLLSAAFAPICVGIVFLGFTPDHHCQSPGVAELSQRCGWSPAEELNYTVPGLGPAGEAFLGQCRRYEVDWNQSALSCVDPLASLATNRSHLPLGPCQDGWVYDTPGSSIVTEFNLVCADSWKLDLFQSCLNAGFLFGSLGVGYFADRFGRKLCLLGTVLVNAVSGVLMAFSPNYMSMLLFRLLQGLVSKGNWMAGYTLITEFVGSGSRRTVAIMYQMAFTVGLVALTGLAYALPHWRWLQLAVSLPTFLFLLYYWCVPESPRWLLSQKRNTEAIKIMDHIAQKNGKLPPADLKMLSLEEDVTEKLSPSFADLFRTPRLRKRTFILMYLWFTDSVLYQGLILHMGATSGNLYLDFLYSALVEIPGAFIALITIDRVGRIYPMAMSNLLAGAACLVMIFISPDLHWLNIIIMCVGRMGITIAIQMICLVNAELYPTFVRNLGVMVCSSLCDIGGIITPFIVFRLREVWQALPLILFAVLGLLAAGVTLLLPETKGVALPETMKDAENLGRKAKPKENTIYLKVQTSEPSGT
The data set can be described thus: Confocal laser scanning microscopy of ASP+ uptake, HEK-OCT1. Type of data set: cell-based. As to conditions: compound 5 15 μM; TPA 200 μM; ASP+ 1 μM. The procedure: (§1) HEK-Co, HEK-OCT1 and HEK-OCT3 cells were seeded into 8-well μ-Slides (Ibidi, Munich, Germany) (2 · 10^4 cells/well) and allowed to attach for 48 hours. Prior to the staining procedure, the medium was replaced by PBS and the DNA probe Draq5 (5 μM) (Biostatus, Shepshed, UK) was added to each well. […] Subsequently, ASP^+ was added to reach a concentration of 1 μM, and the cells were incubated for 5 minutes in the dark. Imaging was performed with an Axiovert 200 M confocal microscope coupled to a Zeiss LSM 510 scanning device (Carl Zeiss, Oberkochen, Germany) using a Plan-Apochromat 63x/1.40 oil immersion objective. Draq5 was excited at 633 nm and fluorescence was detected using a 650 nm long-pass filter, ASP^+ was excited at 488 nm and detected using a 565/35 nm band-pass filter.

A further data set concerns the target T2, OCT3 (Homo sapiens, UniProt O75751).
T2 construct: expressed in transfected cells; host or cells: HEK293 (HEK-OCT3)
T2 sequence (O75751 1-556): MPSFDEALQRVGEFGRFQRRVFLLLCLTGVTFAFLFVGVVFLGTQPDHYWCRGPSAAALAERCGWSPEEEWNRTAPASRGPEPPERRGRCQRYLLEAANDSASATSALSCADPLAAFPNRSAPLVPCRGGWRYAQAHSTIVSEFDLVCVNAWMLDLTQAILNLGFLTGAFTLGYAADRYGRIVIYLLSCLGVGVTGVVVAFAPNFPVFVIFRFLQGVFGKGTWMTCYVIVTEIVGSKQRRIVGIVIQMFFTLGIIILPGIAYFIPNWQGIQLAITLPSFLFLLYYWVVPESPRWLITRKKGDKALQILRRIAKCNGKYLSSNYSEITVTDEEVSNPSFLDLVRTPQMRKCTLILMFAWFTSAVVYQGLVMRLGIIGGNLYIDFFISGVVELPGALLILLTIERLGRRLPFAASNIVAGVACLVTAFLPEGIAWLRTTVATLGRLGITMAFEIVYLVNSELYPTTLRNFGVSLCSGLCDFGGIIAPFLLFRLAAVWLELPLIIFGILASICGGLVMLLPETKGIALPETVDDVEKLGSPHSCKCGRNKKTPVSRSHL
The data set can be described thus: Confocal laser scanning microscopy of ASP+ uptake, HEK-OCT3. The format is cell-based. The settings on record: compound 5 15 μM; TPA 200 μM; ASP+ 1 μM. The procedure:
as §1

The next data set relates to Jurkat cells. Set-up: method as in Hiraoka et al. 50. As to conditions: ref Hiraoka et al. 50; cited from earlier work.
The conditions of data set [1]: plasma, intravenous administration, cited from earlier work.
For data set [2], the system named is p53 in various tumor cell types. More on the design: method as in PMID 17653574. The settings on record: cited from earlier work.

Usually IC50 stands for the concentration that inhibits the measured activity by half. As a reminder, the Cmax is the highest concentration seen after dosing.

For `Cn1c(CCCC(=O)OCCN2CCCC2)nc2cc(N(CCCl)CCCl)ccc21` [Compound 5], on OCT1, the “effect on OCT1 activity (ASP+ uptake, imaging)” value is given as “inhibited”. In addition, the “effect on OCT3 activity (ASP+ uptake, imaging)” value on OCT3 is reported as “inhibited”.

Turning to `Cn1c(CCCC(=O)O)nc2cc(N(CCCl)CCCl)ccc21` [Compound 1, bendamustine, reference compound], the IC50 with Jurkat cells was approximately 50 µM. The Cmax is approximately 17 µM in data set [1] (converted, ref 51); approximately 31 µM in data set [1] (converted, ref 52); 6000 ng/mL in data set [1] (ref 51); 11000 ng/mL in data set [1] (ref 52). In addition, the “concentration required for significant induction of p53 expression” value in data set [2] is not below 80 µM.
